# Biological target: T1, oxidosqualene cyclase (Rattus norvegicus, UniProt P48450)
# T1 construct: Oxidosqualene cyclase is purified from rat liver microsomes; from tissue; host or cells: rat liver microsomes (lauryl maltoside solubilization, FPLC anion-exchange chromatography)
# T1 sequence (P48450 1-733): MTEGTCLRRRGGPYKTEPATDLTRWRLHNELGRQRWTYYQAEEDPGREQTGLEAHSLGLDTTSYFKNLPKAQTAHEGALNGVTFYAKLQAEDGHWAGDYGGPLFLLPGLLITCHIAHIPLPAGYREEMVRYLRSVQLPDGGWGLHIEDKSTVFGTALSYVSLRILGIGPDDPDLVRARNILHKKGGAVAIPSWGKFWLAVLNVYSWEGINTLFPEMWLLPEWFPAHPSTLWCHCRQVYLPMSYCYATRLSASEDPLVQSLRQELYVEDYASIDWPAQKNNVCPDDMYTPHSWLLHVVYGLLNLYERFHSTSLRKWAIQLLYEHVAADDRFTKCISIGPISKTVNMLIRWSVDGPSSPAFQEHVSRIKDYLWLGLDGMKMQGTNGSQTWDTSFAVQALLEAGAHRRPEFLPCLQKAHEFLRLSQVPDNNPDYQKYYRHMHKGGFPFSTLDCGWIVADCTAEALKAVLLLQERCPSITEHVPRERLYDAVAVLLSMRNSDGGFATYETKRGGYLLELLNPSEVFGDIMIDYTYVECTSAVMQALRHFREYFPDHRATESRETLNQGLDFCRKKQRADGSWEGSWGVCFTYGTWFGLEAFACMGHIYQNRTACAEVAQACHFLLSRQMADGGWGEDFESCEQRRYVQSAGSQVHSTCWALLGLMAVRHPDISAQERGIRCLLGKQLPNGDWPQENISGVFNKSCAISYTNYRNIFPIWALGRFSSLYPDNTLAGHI
# Test: Inhibition of Purified Oxidosqualene Cyclase (I10)
# Format: biochemical
# Conditions: 10 μM test compound; oxidosqualene cyclase purified from rat liver microsomes; [3H]squalene monoepoxide 10 μM; pH 7.4
# Procedure: Inhibition of Purified Oxidosqualene Cycloase (I10)
# Oxidosqualene cyclase is purified from rat liver microsomes by the sequential methods of: 1) solubilization with the detergent lauryl maltoside and 2) FPLC anion-exchange chromatography. Compounds are tested to determine their ability to inhibit the conversion of squalene monoepoxide to lanosterol catalyzed by the purified oxidosqualene cyclase. The reaction mixture (final volume, 200 μL), contains potassium phosphate buffer (50 mM, pH 7.4), Na2 EDTA (500 μM), Tween (80 (0.1%), [3H]squalene monoepoxide (10 μM of the racemic mixture, 50 Ci/mol), test compound (10 μM) and purified oxidosqualene cyclase (50 μg). The reagents, prior to mixing are equilibrated at 37° C. for 10 minutes. The reaction is initiated by adding enzyme. The reaction is terminated by the addition of 5 mL of CHCl3 /MeOH (2:1, v/v), 0.8 mL of water and 10 μg each of squalene monoepoxide, squalene diepoxide, lanosterol and cholesterol. The organic layer is isolated and evaporated to dryness under nitrogen. The residue is dissolved in 200 μL of hexane/ethanol (99:1) and the sample is subjected to HPLC separation using a C18 reverse phase column eluted isocratically with 3.6% water in methanol. Radioactivity is quantitated using an in-line scintillation counter. Oxidosqualene cyclase activity is expressed as the percent inhibition of oxidosqualene cyclase activity at 10 μM test compound (I10 values).
# Table 1 provides a summary of the testing data for the inhibition of oxidosqualene cyclase by compounds of formula (I) and formula (II).
row,SMILES,inhibition at 10 µM [%]
1,"CC(CO)C1CCN(C(=O)CCCCSc2ccccc2)CC1 (centres unmarked) [101,550, 1-(1-Oxopentyl-5-phenylsulfide)-4-[(2-hydroxy-1-methyl)ethyl]piperidine]",82
2,"CC(C)CCSCCCCC(=O)N1CCC(C(C)CO)CC1 (centres unmarked) [100,759, 1-(1-Oxopentyl-5-isopentylsulfide)-4-[(2-hydroxy-1-methyl)ethyl]piperidine]",76
3,"CC(C)CCSCCCCC(=O)N1CCCCC1 [101,140, 1-(1-Oxopentyl-5-isopentylsulfide)piperidine]",38

# Further lines, results first:
row,inhibition at 10 µM [%],SMILES
1,29,"CCCCCCCCCCCCS(=O)(=O)N1CCC(C(C)CO)CC1 (centres unmarked) [102,055, 1-(1-Sulfonododecyl)-4[(2-hydroxy-1-methyl)ethyl]piperidine]"
2,46,"CCCCCCCCCCCC[S+]([O-])N1CCC(C(C)CO)CC1 (centres unmarked) [101,915, 1-(1-Sulfoxododecyl)-4-[(2-hydroxy-1-methyl)ethyl]piperidine]"

# From patent US5489600A, “Piperidyl amides, sulfonamides and sulfoxamides as inhibitors of cholesterol biosynthesis” (priority 1994, dated 1996)
